The IC50 is the point on the concentration scale where inhibition reaches its midpoint. High values mean weaker potency, low ones greater potency.

Assay [1] concerns the target T1, Neprilysin (Rattus norvegicus, UniProt P07861).
T1 sequence (P07861 whole entry): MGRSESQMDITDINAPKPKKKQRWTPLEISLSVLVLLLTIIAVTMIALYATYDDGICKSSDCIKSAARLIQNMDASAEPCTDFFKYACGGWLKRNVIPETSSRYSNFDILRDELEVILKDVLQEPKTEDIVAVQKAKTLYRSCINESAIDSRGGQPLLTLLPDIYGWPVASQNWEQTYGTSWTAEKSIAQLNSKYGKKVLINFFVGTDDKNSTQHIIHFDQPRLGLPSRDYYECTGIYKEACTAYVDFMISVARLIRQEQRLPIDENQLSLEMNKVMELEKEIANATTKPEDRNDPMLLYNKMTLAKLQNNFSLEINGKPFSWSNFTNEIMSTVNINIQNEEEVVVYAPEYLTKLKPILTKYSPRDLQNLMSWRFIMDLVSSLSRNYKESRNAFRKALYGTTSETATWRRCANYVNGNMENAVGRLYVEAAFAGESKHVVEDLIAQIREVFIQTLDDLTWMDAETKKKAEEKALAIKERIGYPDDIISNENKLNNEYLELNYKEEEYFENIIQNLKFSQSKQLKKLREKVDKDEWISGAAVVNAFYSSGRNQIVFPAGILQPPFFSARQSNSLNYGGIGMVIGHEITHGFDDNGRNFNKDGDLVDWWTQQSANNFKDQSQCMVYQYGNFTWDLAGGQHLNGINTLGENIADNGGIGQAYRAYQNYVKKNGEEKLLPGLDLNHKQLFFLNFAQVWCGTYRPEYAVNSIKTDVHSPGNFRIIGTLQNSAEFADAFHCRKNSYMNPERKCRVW
The experiment in a line: Compound was tested for its inhibitory activity against neutral endopeptidase 24.11 enzyme at the concentration of 10 uM; Inactive.

In assay [2] the target is T2, Angiotensin-converting enzyme (Oryctolagus cuniculus, UniProt P12822).
T2 sequence (P12822 whole entry): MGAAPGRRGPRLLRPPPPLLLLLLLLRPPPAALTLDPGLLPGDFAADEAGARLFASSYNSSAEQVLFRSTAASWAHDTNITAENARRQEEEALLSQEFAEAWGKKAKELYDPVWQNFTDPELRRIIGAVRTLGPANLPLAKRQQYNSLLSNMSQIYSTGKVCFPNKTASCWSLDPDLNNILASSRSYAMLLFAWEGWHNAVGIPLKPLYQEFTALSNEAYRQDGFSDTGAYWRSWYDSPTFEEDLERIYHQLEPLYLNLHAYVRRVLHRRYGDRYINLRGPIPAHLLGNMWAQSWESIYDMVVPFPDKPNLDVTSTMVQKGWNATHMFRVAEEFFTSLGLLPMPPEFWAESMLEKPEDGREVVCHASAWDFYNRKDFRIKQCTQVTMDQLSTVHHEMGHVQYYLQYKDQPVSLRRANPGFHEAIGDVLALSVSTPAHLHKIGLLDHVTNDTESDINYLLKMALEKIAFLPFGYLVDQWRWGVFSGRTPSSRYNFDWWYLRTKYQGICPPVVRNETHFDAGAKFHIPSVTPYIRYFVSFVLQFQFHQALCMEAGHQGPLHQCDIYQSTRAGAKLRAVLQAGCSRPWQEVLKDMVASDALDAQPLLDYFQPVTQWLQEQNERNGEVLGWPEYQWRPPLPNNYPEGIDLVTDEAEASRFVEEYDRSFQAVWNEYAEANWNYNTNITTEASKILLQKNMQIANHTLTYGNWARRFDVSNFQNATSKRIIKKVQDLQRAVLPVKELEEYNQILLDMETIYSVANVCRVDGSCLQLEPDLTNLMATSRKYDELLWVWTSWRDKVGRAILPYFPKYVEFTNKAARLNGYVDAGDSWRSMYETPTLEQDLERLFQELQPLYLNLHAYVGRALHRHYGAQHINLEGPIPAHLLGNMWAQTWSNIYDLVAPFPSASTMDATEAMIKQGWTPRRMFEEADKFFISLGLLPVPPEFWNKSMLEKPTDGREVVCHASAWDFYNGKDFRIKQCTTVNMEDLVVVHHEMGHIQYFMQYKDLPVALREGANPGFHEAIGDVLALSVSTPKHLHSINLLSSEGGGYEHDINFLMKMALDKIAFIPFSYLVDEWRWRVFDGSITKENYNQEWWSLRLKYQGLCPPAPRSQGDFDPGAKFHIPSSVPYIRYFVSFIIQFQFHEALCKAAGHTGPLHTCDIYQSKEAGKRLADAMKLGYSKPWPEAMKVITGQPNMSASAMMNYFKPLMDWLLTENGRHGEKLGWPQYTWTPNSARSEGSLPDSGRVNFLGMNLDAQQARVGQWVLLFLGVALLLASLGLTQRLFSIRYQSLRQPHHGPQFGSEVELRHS
The assay can be described thus: Compound was tested for its inhibitory activity against Angiotensin I converting enzyme.

Assay [3] addresses T3, Endothelin-converting enzyme 1 (Homo sapiens, UniProt P42892).
T3 sequence (P42892 whole entry): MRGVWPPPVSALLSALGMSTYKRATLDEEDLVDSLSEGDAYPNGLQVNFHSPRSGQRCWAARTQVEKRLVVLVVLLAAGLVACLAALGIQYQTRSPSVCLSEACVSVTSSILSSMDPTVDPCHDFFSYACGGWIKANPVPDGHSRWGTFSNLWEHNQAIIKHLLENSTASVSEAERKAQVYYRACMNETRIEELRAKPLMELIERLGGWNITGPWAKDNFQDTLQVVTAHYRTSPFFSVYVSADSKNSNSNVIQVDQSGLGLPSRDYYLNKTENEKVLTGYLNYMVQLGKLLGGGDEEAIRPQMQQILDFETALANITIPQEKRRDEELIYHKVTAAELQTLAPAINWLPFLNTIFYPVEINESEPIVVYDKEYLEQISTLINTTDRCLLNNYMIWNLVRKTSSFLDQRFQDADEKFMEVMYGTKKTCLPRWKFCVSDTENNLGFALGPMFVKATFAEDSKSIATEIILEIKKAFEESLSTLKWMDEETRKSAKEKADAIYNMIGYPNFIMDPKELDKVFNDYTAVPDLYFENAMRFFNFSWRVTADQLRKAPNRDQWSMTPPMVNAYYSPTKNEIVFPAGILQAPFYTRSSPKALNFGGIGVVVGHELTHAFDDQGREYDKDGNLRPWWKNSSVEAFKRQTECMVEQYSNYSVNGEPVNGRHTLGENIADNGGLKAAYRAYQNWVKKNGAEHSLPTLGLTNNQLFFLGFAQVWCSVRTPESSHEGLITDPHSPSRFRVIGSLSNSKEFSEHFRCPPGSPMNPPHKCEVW
The experiment in a line: Compound was tested for its inhibitory activity against Endothelin-converting enzyme at the concentration of 1 uM; Inactive.

On to `C[C@H](CS)C(=O)N1[C@@H]2C[C@@H]2CC[C@H]1C(=O)O`, for which the figures for the IC50 entry in assay [1], in assay [2] and in assay [3] were “Not Active”, 5.3 nM and “Not Active”, respectively.

Turning to `C[C@H](CS)C(=O)N1[C@@H]2C[C@@H]2C[C@H]1C(=O)O`, the IC50 entry in assay [1] was “Not Active”; in assay [2] it was 7.6 nM; in assay [3] it was “Not Active”.

Take `C[C@H](CS)C(=O)N1[C@H](C(=O)O)C[C@@H]2C[C@@H]21`: the IC50 result was “Not Active” in assay [1], 6.6 nM in assay [2] and “Not Active” in assay [3].
